The results in this text go back to patent publication US8841312B2, “Fused pyridine, pyrimidine and triazine compounds as cell cycle inhibitors” (Amgen Inc., priority 2007, dated 2014).

By IC50 is commonly meant the concentration that inhibits the measured activity by half.

In one assay the target is Cdk4/CyclinD1 (Homo sapiens (Human), UniProt P11802). Put plainly: Cdk4 kinase inhibition assay with recombinant Cdk4/CyclinD1, Rb substrate, [33P]-ATP filter plate. Format: biochemical. To be noted: 25 μM ATP, read-out: Cdk 4 IC50. Summed up:
(§1)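 Recombinant Cdk4/CyclinD1 or Cdk6/CyclinD3 phosphorylated Rb protein with [33P]-ATP for 1 h at room temperature. Protein was TCA-precipitated on filter plates and bound radioactivity counted. IC50 by nonlinear regression.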

In the next assay the target is Cdk6/CyclinD3 (Homo sapiens (Human), UniProt Q00534). Put plainly: Cdk6 kinase inhibition assay with recombinant Cdk6/CyclinD3, Rb substrate, [33P]-ATP filter plate. The class given is biochemical. The note with it: 25 μM ATP, read-out: Cdk 6 IC50. Summed up:
as §1

Sequence of Cdk6/CyclinD3 (Q00534 whole entry): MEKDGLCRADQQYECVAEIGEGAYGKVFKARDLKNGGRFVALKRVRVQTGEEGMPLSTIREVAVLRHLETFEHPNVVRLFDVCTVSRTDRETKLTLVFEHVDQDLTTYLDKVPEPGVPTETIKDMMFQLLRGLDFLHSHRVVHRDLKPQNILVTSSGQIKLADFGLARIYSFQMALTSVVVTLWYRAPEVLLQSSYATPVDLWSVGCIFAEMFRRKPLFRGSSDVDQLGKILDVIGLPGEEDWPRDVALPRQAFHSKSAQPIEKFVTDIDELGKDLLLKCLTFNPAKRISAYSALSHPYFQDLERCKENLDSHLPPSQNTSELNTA
Sequence of Cdk6/CyclinD3 (P30281 whole entry partner): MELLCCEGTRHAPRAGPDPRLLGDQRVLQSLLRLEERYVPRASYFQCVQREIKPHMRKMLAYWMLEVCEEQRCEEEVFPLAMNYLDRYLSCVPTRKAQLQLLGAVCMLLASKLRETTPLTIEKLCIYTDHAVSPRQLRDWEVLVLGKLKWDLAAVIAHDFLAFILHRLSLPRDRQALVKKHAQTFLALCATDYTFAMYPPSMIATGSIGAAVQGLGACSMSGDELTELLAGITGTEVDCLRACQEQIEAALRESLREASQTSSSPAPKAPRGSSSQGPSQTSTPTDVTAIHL
Sequence of Cdk4/CyclinD1 (P11802 whole entry): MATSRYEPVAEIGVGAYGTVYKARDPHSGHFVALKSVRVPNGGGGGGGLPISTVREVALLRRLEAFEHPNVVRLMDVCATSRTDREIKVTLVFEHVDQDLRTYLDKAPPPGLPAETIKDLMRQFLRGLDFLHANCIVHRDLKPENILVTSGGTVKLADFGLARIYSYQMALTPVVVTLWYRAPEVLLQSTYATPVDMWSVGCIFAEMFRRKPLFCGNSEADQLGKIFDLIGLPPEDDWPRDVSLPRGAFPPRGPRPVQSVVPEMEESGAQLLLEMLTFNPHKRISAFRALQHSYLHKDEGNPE
Sequence of Cdk4/CyclinD1 (P24385 whole entry partner): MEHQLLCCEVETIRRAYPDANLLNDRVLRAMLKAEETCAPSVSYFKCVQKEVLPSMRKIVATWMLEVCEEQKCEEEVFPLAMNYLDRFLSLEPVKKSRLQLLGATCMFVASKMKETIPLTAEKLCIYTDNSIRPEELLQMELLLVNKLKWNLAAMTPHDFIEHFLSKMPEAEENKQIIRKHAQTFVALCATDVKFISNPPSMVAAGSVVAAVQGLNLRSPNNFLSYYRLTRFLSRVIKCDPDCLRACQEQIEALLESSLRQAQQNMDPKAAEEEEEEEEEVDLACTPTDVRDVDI

For the compound `O=S1(=O)CCC(c2ccc(Nc3ncc4c5ccncc5n(C5CCCC5)c4n3)nc2)CC1` [Example 270, 9-Cyclopentyl-N-(5-(1,1-dioxidotetrahydro-2H-thiopyran-4-yl)-2-pyridinyl)-9H-pyrido[4′,3′:4,5]pyrrolo[2,3-d]pyrimidin-2-amine], the values for the IC50 at Cdk4/CyclinD1 and at Cdk6/CyclinD3 were 40 nM and 35 nM, respectively.

With `O=S1(=O)CC=C(c2ccc(Nc3ncc4c5ccnc(F)c5n(C5CCCC5)c4n3)nc2)CC1` [Example 271, 9-Cyclopentyl-N-(5-(1,1-dioxido-3,6-dihydro-2H-thiopyran-4-yl)-2-pyridinyl)-8-fluoro-9H-pyrido[4′,3′:4,5]pyrrolo[2,3-d]pyrimidin-2-amine], the concentration for half-maximal inhibition (IC50) at Cdk4/CyclinD1 and on Cdk6/CyclinD3 was 16 nM in each case.

In the case of `NC1[C@H]2CN(c3ccc(Nc4ncc5c6ccncc6n(C6CCCC6)c5n4)nn3)C[C@@H]12` (stereo partly drawn) [Example 272, N-(6-((1R,5S)-6-amino-3-azabicyclo[310]hex-3-yl)-3-pyridazinyl)-9-cyclopentyl-9H-pyrido[4′,3′:4,5]pyrrolo[2,3-d]pyrimidin-2-amine], the IC50 on Cdk4/CyclinD1 came out at 27 nM; at Cdk6/CyclinD3, 101 nM.

Regarding `CN(C)[C@H]1CCN(c2ccc(Nc3ncc4c5ccncc5n(C5CCCC5)c4n3)nc2)C1` [Example 288], the IC50 at Cdk4/CyclinD1 was found to be 14 nM; on Cdk6/CyclinD3 it was 40 nM.

For `CN(C)[C@@H]1CCN(c2ccc(Nc3ncc4c5ccncc5n(C5CCCC5)c4n3)nc2)C1` [Example 289], the IC50 on Cdk4/CyclinD1 came to 7.2 nM; at Cdk6/CyclinD3 it was 40 nM.

In the case of `CN(C)CCCN(C)c1ccc(Nc2ncc3c4ccncc4n(C4CCCC4)c3n2)nn1` [Example 290], the IC50 at Cdk4/CyclinD1 came to 35 nM; at Cdk6/CyclinD3 it was 85 nM.

Turning to `OCCNc1ccc(Nc2ncc3c4ccncc4n(C4CCCC4)c3n2)nn1` [Example 292], the IC50 was 4.9 nM on Cdk4/CyclinD1 and 16.1 nM on Cdk6/CyclinD3.

On to `C[C@@H](O)CNc1ccc(Nc2ncc3c4ccncc4n(C4CCCC4)c3n2)nn1` [Example 293], for which the IC50 worked out at 4.6 nM at Cdk4/CyclinD1 and 16 nM at Cdk6/CyclinD3.

Take `C[C@H](O)CNc1ccc(Nc2ncc3c4ccncc4n(C4CCCC4)c3n2)nn1` [Example 294]: the IC50 on Cdk4/CyclinD1 was 5.9 nM; on Cdk6/CyclinD3, 26 nM.

Turning to `C[C@H](CO)Nc1ccc(Nc2ncc3c4ccncc4n(C4CCCC4)c3n2)nn1` [Example 295], the IC50 came out at 6.8 nM at Cdk4/CyclinD1 and 33.7 nM on Cdk6/CyclinD3.

With `C[C@@H](CO)Nc1ccc(Nc2ncc3c4ccncc4n(C4CCCC4)c3n2)nn1` [Example 296], the results for the IC50 on Cdk4/CyclinD1 and on Cdk6/CyclinD3 were 5.5 nM and 14 nM, respectively.

For the compound `OCCCNc1ccc(Nc2ncc3c4ccncc4n(C4CCCC4)c3n2)nn1` [Example 297], the IC50 at Cdk4/CyclinD1 is 1.4 nM; on Cdk6/CyclinD3, 13 nM.

On to `CN1CCN(c2ccc(Nc3ncc4c5ccccc5n(C5CCCC5)c4n3)nc2)CC1` [Example 298], for which the results for the IC50 on Cdk4/CyclinD1 and at Cdk6/CyclinD3 were 40 nM and 8 nM, respectively.

On to `CC1(C)CN(c2ccc(Nc3ncc4c5ccccc5n(C5CCCC5)c4n3)nn2)CCN1` [Example 299], for which the IC50 at Cdk4/CyclinD1 was 60 nM; on Cdk6/CyclinD3 it was 34 nM.

As to `CN(C)C1CCN(c2ccc(Nc3ncc4c5ccccc5n(C5CCCC5)c4n3)nn2)CC1` [Example 300], the IC50 was determined as 22 nM on Cdk4/CyclinD1 and 48 nM on Cdk6/CyclinD3.

`CN1CCN(c2ccc(Nc3ncc4c5ccccc5n(C5CCCC5)c4n3)nn2)CC1` [Example 301]: the IC50 stood at 31 nM at Cdk4/CyclinD1 and 22 nM on Cdk6/CyclinD3.

Consider `C[C@H]1CN(c2ccc(Nc3ncc4c5ccccc5n(C5CCCC5)c4n3)nn2)CCN1` [Example 302], for which the IC50 turned out to be 47 nM at Cdk4/CyclinD1 and 23 nM on Cdk6/CyclinD3.

On to `CC1CN(c2ccc(Nc3ncc4c5ccccc5n(C5CCCC5)c4n3)nc2)CC(C)N1` (stereo not shown) [Example 303], for which the results for the IC50 at Cdk4/CyclinD1 and at Cdk6/CyclinD3 were 31 nM and 30 nM, respectively.

Take `O[C@@H]1CCN(c2ccc(Nc3ncc4c5ccccc5n(C5CCCC5)c4n3)nc2)C1` [Example 304]: the results for the IC50 at Cdk4/CyclinD1 and at Cdk6/CyclinD3 were 46 nM and 27 nM, respectively.

On to `O[C@H]1CCN(c2ccc(Nc3ncc4c5ccccc5n(C5CCCC5)c4n3)nc2)C1` [Example 305], for which the values for the IC50 on Cdk4/CyclinD1 and on Cdk6/CyclinD3 were 149 nM and 111 nM, respectively.

For `CC1CN(c2ccc(Nc3ncc4c5ccccc5n(C5CCCC5)c4n3)nn2)CC(C)N1` (stereo not shown) [Example 306], the IC50 worked out at 13 nM at Cdk4/CyclinD1 and 39 nM at Cdk6/CyclinD3.

With `c1ccc2c(c1)c1cnc(Nc3ccc(N4CCNCC4)nn3)nc1n2C1CCCC1` [Example 307], the 50% inhibitory concentration (IC50) came to 11 nM on Cdk4/CyclinD1 and 8.8 nM at Cdk6/CyclinD3.

As for `NC1CCN(c2ccc(Nc3ncc4c5ccccc5n(C5CCCC5)c4n3)nn2)CC1` [Example 308], the IC50 at Cdk4/CyclinD1 is 11 nM; on Cdk6/CyclinD3 it was 8 nM.

In the case of `CN(C)C1CCN(c2ccc(Nc3ncc4c5ccccc5n(C5CCCC5)c4n3)nc2)CC1` [Example 309], the IC50 on Cdk4/CyclinD1 was 11 nM; on Cdk6/CyclinD3 it was 12 nM.

As to `CNC1CCN(c2ccc(Nc3ncc4c5ccnc(F)c5n(C5CCCC5)c4n3)nc2)CC1` [Example 310], the results for the IC50 on Cdk4/CyclinD1 and at Cdk6/CyclinD3 were 5 nM and 13 nM, respectively.

With `O[C@H]1CCN(c2ccc(Nc3ncc4c5ccnc(F)c5n(C5CCCC5)c4n3)nn2)C1` [Example 311], the IC50 at Cdk4/CyclinD1 amounted to 8.6 nM; at Cdk6/CyclinD3, 24 nM.

With `COCCn1c2cnccc2c2cnc(Nc3ccc(N4CCNCC4)cn3)nc21` [Example 312], the IC50 stood at 370 nM at Cdk4/CyclinD1 and 790 nM on Cdk6/CyclinD3.

Take `COCCn1c2cnccc2c2cnc(Nc3ccc(N4CCNCC4)nn3)nc21` [Example 313]: the figures for the IC50 on Cdk4/CyclinD1 and on Cdk6/CyclinD3 were 340 nM and 400 nM, respectively.

Take `COCCn1c2cnccc2c2cnc(Nc3ccc(N4CCC(N(C)C)CC4)cn3)nc21` [Example 314]: the IC50 on Cdk4/CyclinD1 stood at 380 nM; on Cdk6/CyclinD3 it was 1500 nM.

With `CC[C@@H](C)n1c2cnccc2c2cnc(Nc3ccc(N4CCC(N(C)C)CC4)nn3)nc21` [Example 316], the IC50 on Cdk4/CyclinD1 worked out at 36 nM; at Cdk6/CyclinD3, 59 nM.

Take `CC[C@@H](C)n1c2cnccc2c2cnc(Nc3ccc(N4CCN[C@@H](C)C4)nn3)nc21` [Example 317]: the IC50 came out at 12 nM on Cdk4/CyclinD1 and 21 nM at Cdk6/CyclinD3.

As for `CC[C@@H](C)n1c2cnccc2c2cnc(Nc3ccc(N4CCC(NC)CC4)nn3)nc21` [Example 318], the IC50 on Cdk4/CyclinD1 was found to be 2.9 nM; on Cdk6/CyclinD3, 27 nM.

`CC[C@@H](C)n1c2cnccc2c2cnc(Nc3ccc(N4CC[C@@H](O)C4)nn3)nc21` [Example 319]: the IC50 is 22 nM at Cdk4/CyclinD1 and 49 nM at Cdk6/CyclinD3.

Consider `CC[C@@H](C)n1c2cnccc2c2cnc(Nc3ccc(N4CCNCC4)cn3)nc21` [Example 320], for which the IC50 came out at 3.6 nM on Cdk4/CyclinD1 and 11 nM on Cdk6/CyclinD3.

`CC[C@@H](C)n1c2cnccc2c2cnc(Nc3ccc(N4CCN[C@@H](C)C4)cn3)nc21` [Example 321]: the IC50 at Cdk4/CyclinD1 came out at 7 nM; on Cdk6/CyclinD3 it was 11 nM.

Consider `CC[C@@H](C)n1c2cnccc2c2cnc(Nc3ccc(N4CC[C@@H](O)C4)cn3)nc21` [Example 322], for which the IC50 is 15 nM at Cdk4/CyclinD1 and 50 nM on Cdk6/CyclinD3.

For `CC[C@@H](C)n1c2cnccc2c2cnc(Nc3ccc(N4CCNCC4)nn3)nc21` [Example 323], the IC50 turned out to be 9.6 nM at Cdk4/CyclinD1 and 23 nM on Cdk6/CyclinD3.

On to `CC[C@@H](C)n1c2cnccc2c2cnc(Nc3ccc(N4CCNC(C)(C)C4)nn3)nc21` [Example 324], for which the IC50 is 11 nM at Cdk4/CyclinD1 and 20 nM on Cdk6/CyclinD3.

`CC[C@@H](C)n1c2cnccc2c2cnc(Nc3ccc(N4CCC(NC)CC4)cn3)nc21` [Example 325]: the figures for the IC50 at Cdk4/CyclinD1 and at Cdk6/CyclinD3 were 11 nM and 42 nM, respectively.

`CN(C)C1CCN(c2ccc(Nc3ncc4c5ccncc5n(C5CCC5)c4n3)nc2)CC1` [Example 341]: the IC50 at Cdk4/CyclinD1 was determined as 21 nM; on Cdk6/CyclinD3 it was 16 nM.

Turning to `CC[C@@H](C)n1c2cnccc2c2cnc(Nc3ccc(N4CCNC(C)(C)C4)cn3)nc21` [Example 342], the IC50 on Cdk4/CyclinD1 was determined as 87 nM; at Cdk6/CyclinD3, 77 nM.

`CC1(C)CN(c2ccc(Nc3ncc4c5ccncc5n(C5CCC5)c4n3)nc2)CCN1` [Example 343]: the IC50 at Cdk4/CyclinD1 amounted to 44 nM; on Cdk6/CyclinD3 it was 28 nM.

Turning to `C[C@H]1CN(c2ccc(Nc3ncc4c5ccncc5n(C5CCC5)c4n3)nc2)CCN1` [Example 344], the results for the IC50 on Cdk4/CyclinD1 and at Cdk6/CyclinD3 were 16 nM and 10 nM, respectively.

`CNC1CCN(c2ccc(Nc3ncc4c5ccncc5n(C5CCC5)c4n3)nc2)CC1` [Example 345]: the 50% inhibitory concentration (IC50) was found to be 21 nM on Cdk4/CyclinD1 and 15 nM on Cdk6/CyclinD3.

Take `c1cc2c3cnc(Nc4ccc(N5CCNCC5)nn4)nc3n(C3CCC3)c2cn1` [Example 346]: the IC50 on Cdk4/CyclinD1 is 54 nM; at Cdk6/CyclinD3, 16 nM.

With `CN(C)C1CCN(c2ccc(Nc3ncc4c5ccncc5n(C5CCC5)c4n3)nn2)CC1` [Example 347], the IC50 at Cdk4/CyclinD1 and on Cdk6/CyclinD3 was 27 nM each time.

For `CC1(C)CN(c2ccc(Nc3ncc4c5ccncc5n(C5CCC5)c4n3)nn2)CCN1` [Example 348], the IC50 at Cdk4/CyclinD1 was determined as 17 nM; on Cdk6/CyclinD3 it was 12 nM.

For `CN(C)C1CCN(c2ccc(Nc3ncc4c5ccncc5n([C@@H]5CCNC5)c4n3)nc2)CC1` [Example 349], the IC50 came to 144 nM on Cdk4/CyclinD1 and 340 nM at Cdk6/CyclinD3.

As to `CN(C)C1CCN(c2ccc(Nc3ncc4c5ccncc5n(CCCO)c4n3)nc2)CC1` [Example 350], the IC50 at Cdk4/CyclinD1 was 74 nM; at Cdk6/CyclinD3, 102 nM.

`C[C@H]1CN(c2ccc(Nc3ncc4c5ccncc5n(CCCO)c4n3)nc2)CCN1` [Example 351]: the figures for the IC50 on Cdk4/CyclinD1 and on Cdk6/CyclinD3 were 80 nM and 176 nM, respectively.

`OCCCn1c2cnccc2c2cnc(Nc3ccc(N4CCNCC4)nn3)nc21` [Example 352]: the IC50 stood at 146 nM at Cdk4/CyclinD1 and 53 nM on Cdk6/CyclinD3.

For `OCCCn1c2cnccc2c2cnc(Nc3ccc(N4CC[C@@H](O)C4)nn3)nc21` [Example 353], the IC50 on Cdk4/CyclinD1 stood at 90 nM; on Cdk6/CyclinD3, 103 nM.

Regarding `CN(C)C1CCN(c2ccc(Nc3ncc4c5ccncc5n([C@H]5CCC[C@H]5O)c4n3)nc2)CC1` [Example 354], the IC50 on Cdk4/CyclinD1 was determined as 580 nM; on Cdk6/CyclinD3, 830 nM.
